Assay results taken from publication PMC10468298, “Umami taste perception and preferences of the domestic cat (Felis catus), an obligate carnivore” (Chemical Senses, 2023).
Where two headings read alike, the source gives them in different places.

Experiments:
[1] = target: T1, cat Tas1r1-Tas1r3 (Felis catus, UniProt A0ABI7Z2I4); assay: Calcium mobilization assay (FLIPR) in HEK293T cells expressing cat Tas1r1-Tas1r3 and mGα15i1; details: for Activity as agonist or enhancer of the cat umami receptor: alone and with 0.2 mM IMP
T1 sequence (A0ABI7Z2I4 entry or part of it): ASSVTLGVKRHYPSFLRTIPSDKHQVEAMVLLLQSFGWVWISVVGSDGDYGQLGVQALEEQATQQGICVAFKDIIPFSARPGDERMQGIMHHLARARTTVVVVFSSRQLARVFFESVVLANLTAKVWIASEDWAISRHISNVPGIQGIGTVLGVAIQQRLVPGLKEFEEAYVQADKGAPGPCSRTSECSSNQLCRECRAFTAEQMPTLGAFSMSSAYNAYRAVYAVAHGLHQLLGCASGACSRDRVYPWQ
T1 sequence (Q49KI5 25-865, further chain): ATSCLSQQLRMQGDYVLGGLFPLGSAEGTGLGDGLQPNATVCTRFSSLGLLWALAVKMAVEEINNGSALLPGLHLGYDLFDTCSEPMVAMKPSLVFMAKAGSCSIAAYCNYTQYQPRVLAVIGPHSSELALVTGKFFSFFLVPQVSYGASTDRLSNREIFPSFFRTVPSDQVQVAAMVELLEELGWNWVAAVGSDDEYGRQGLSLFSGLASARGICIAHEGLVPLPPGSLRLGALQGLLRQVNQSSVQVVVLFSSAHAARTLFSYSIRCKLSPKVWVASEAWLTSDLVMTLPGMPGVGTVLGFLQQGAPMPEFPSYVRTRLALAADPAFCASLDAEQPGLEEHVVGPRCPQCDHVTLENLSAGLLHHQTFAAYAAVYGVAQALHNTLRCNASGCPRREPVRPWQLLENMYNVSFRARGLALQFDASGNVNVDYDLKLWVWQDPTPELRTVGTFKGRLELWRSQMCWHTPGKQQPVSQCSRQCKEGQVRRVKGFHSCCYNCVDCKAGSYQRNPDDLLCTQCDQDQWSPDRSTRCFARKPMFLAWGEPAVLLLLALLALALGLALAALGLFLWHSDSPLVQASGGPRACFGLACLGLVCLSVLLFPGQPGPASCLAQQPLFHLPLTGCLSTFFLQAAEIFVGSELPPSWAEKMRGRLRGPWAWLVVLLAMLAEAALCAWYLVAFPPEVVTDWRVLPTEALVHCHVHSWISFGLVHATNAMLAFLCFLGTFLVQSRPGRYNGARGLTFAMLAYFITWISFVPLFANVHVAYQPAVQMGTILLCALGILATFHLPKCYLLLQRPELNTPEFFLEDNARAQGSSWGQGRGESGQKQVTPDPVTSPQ
Experimental: Cat Tas1r1 and cat Tas1r3 were also stably transfected, but the GeneSwitch system (Invitrogen) was used, resulting in expression which had to be induced by adding 0.1 nM mifepristone to the cells 48 h prior to the experiment. […] Expression constructs were transfected into the HEK293T cell line using Lipofectamine 2000 according to the manufacturer’s recommendations. […] The cell line was maintained in Dulbecco’s MEM High-Glucose supplemented with Glutamax-I (Gibco) and with 10% dialyzed fetal bovine serum, 1% Penicillin/Streptomycin, 100 µg/mL G418, 100 µg/mL Hygromycin, 10 µg/mL Zeocin, 2.5 µg/mL Blasticidin, and 0.5 µg/mL Puromycin.
(§1) These and other test compounds were stored at −20 °C and freshly prepared in the assay buffer on the day of the experiments. […] For the functional expression work, the solubility of amino acids was improved by sonication.
The calcium mobilization experiments were performed using a FLIPR Tetra (Molecular Devices). […] Twenty-four hours later, 0.1 nM mifepristone was added to each well to induce expression of cat Tas1r1 and cat Tas1r3. […] Forty-eight hours after induction with mifepristone, the medium was removed from the cells and 20 μL loading buffer (Tyrode’s buffer + 2 μM Fluo4 AM + 100 μM probenecid) was added, and the plate was incubated for 40 min at 37 °C and then transferred for another 20 min at room temperature. The cells were then washed two times with Tyrode’s buffer using an automated plate washer (Biotek) and incubated for 20 min at room temperature in the dark. The cells were then washed a further two times before being transferred to the FLIPR Tetra.
Concentration–response curves, each with 8 concentration points, were established by plotting signal amplitudes versus agonist concentration. The half maximal effective concentrations (EC50) were identified by nonlinear regression using a variable slope model with the equation Y = Bottom + (X^Hillslope) × (Top-Bottom)/(X^HillSlope + EC50^HillSlope), where Y is the response, and X is the agonist concentration, Top and Bottom are the plateaus in the same units as Y and HillSlope is the Slope factor or Hill slope. All calculations and plots were done using GraphPad Prism 8 (GraphPad Software, CA). […] In these cases, the EC50 was noted as being higher than the maximum concentration used in the assay.

[2] = test system: cats; assay: 2-bottle taste choice test, cat water panel, 18-h exposure; type: in vivo, domestic cat (Felis catus)
Experimental: The minimum panel size was n = 14, but only for one study with 80 mM MSG; in all other cases, the minimum panel size was n = 21. The maximum panel size was n = 24. […] For those cases, we have also reported the number of unique cats, as some cats were present in more than one study. All cats on the panel had previously been habituated and screened for suitability to perform this type of study. […] The cats were re-homed once they completed their tenure at the Waltham Petcare Science Institute, as per standard Waltham practice.
Solutions were made with deionized water (Purite, UK). […] In some cases, salts were purchased instead of the pure compound due to solubility, stability, or availability. For all the solutions, the pH range spanned approximately 5–8.
Choice tests for the taste compound solutions at specific concentrations were run over an 18-h period using a 2-bottle testing apparatus. […] All animal studies conformed with the Mars Animal Research Policy (www.Mars.com) and were approved by the Waltham Animal Welfare and Ethical Review Body.
Using a bespoke statistical analysis toolkit, based on R software (R Foundation, Vienna, Austria), a mixed model analysis was performed on the difference in intake (g) between water solutions, including cat (random) as a factor where appropriate. This was used to test the mean intake difference versus 0, i.e. no difference, at a 5% significance level. The mean difference in intake was reported with a 95% confidence interval. Any data errors (e.g. following manual error such as solution spillage, overflow) were removed from the final data set for analysis.

[3] = test system: cats; assay: Taste choice test, cat water panel, 1-hr exposure; type: in vivo, domestic cat (Felis catus)
Experimental: All taste choice tests with 1-hr exposure period were run as outlined in the Materials and Methods, with the following differences. The minimum panel size was n = 24 and the maximum panel size was n = 25. […] The cats were water-restricted for 1-hr prior to the 1-hr water exposure period, with their first meal given in the last 20-min of the water restriction. 50 mL of each test solution was offered to the cats in round water bowls with a maximum capacity 150 mL (Flyte So Fancy, UK), which were held in bespoke bowl holders (TECHNIK – A Division of Syspal Ltd., UK).

[4] = test system: cat Tas1r1 VFT; design: method as in Belloir et al. 2017; details: intrinsic tryptophan fluorescence; ref Belloir et al. 2017; cited from earlier work
[5] = test system: cats; design: method as in Beauchamp et al. 1977; details: 10, 20, 40 and 80 mM versus water, 1-h; ref Beauchamp et al. 1977; cited from earlier work
[6] = test system: cats; details: cited from earlier work; for Behavioral response of cats to the solutions: acidic solutions, ref Beauchamp et al. 1977, McGrane et al. 2013
[7] = target: T1, cat Tas1r1-Tas1r3; design: method as in Toda et al. 2021; details: ref Toda et al. 2021, cited from earlier work; for Activation of cat Tas1r1-Tas1r3: tested alone
[8] = test system: cats; design: method as in White and Boudreau 1975; details: 0.5, 5.0 and 50.0 mM in 50 mM saline versus 50 mM saline, 24-h; ref White and Boudreau 1975; cited from earlier work
[9] = Solubility of amino acids in assay buffer / water; details: Tyrode's buffer pH 7.4, sonication
Experimental: as §1

[10] = amino acid 25 mM versus L-Serine 25 mM
[11] = amino acid 25 mM versus L-Tryptophan 25 mM
[12] = amino acid 25 mM versus L-Asparagine 25 mM

`O=c1[nH]c(=O)c2ncn([C@@H]3O[C@H](COP(=O)(O)O)[C@@H](O)[C@H]3O)c2[nH]1` [XMP, Xanthosine 5ʹ-monophosphate] showed an EC50 [1] of 0.48 mM.

`Nc1ccn([C@@H]2O[C@H](COP(=O)(O)O)[C@@H](O)[C@H]2O)c(=O)n1` [CMP, Cytidine 5ʹ-monophosphate] gave an Intake diff. ([2]; nucleotide 5 mM versus water) of 69.5 g.

For `C[C@H](N)C(=O)O` [L-Alanine, reference compound], the Intake diff. ([2]; amino acid 25 mM versus water) is given as 30.5 g, the Intake diff. ([3]; amino acid 25 mM versus water) is given as 16.9 g and the “Ligand binding to cat Tas1r1 VFT (conformational change)” value [4] is given as “active”. For the same compound, the “Behavioral response of cats” value [5] was “may be preferred to water” and the EC50 [1] was 15.5 mM.

Compound `NC(=O)C[C@H](N)C(=O)O` [L-Asparagine] has an Intake diff. [2, 10] of 12.0 g, an Intake diff. [2, 11] of -20.9 g and an Intake diff. ([2]; amino acid 25 mM versus water) of 35.9 g. For the same compound, the EC50 ([1]; read-out: wIMP EC50, L-amino acid with 0.2 mM IMP) was 15.7 mM.

`N[C@@H](CCC(=O)O)C(=O)[O-].[Na+]` [MSG, monosodium glutamate] gave an Intake diff. ([2]; MSG 20 mM versus water) of 22.2 g and an Intake diff. ([2]; MSG 80 mM versus water) of -7.9 g.

For `CC[C@H](C)[C@H](N)C(=O)O` [L-Isoleucine], the “Ligand binding to cat Tas1r1 VFT (conformational change)” value [4] is listed as “active”.

In the case of `N[C@@H](CS)C(=O)O` [L-Cysteine], the Intake diff. ([2]; amino acid 25 mM versus water) is listed as 48.3 g, the Intake diff. ([3]; amino acid 25 mM versus water) is listed as 27.9 g and the “Ligand binding to cat Tas1r1 VFT (conformational change)” value [4] is listed as “inactive”. The EC50 [1] was 13.1 mM.

For `N[C@@H](CC(=O)O)C(=O)O` [L-Aspartic acid], the “Behavioral response of cats to the solutions” value [6] is given as “avoided” and the “Activity as agonist or enhancer of the cat umami receptor” value (from here on “Activity as agonist or enhancer”) [1] is given as “did not respond”.

For `O=c1ccn([C@@H]2O[C@H](COP(=O)(O)O)[C@@H](O)[C@H]2O)c(=O)[nH]1` [UMP, Uridine 5ʹ-monophosphate], the Intake diff. ([2]; nucleotide 5 mM versus water) was 67.0 g.

Compound `N[C@@H](Cc1ccc(O)cc1)C(=O)O` [L-Tyrosine] has an Intake diff. ([2]; amino acid 2.5 mM versus water) of -1.8 g and an EC50 [1] of 22.2 mM.

`N[C@@H](CO)C(=O)O` [L-Serine] showed an Intake diff. ([2]; amino acid 25 mM versus water) of 25.3 g, an Intake diff. ([3]; amino acid 25 mM versus water) of 18.0 g and an EC50 [1] of 14.1 mM.

In the case of `Nc1ncnc2c1ncn2[C@@H]1O[C@H](COP(=O)(O)O)[C@@H](O)[C@H]1O` [AMP, Adenosine 5ʹ-monophosphate], the Intake diff. ([2]; nucleotide 5 mM versus water) is reported as 25.4 g and the Intake diff. ([3]; nucleotide 5 mM versus water) is reported as 20.6 g.

Compound `CC(C)C[C@H](N)C(=O)O` [L-Leucine] has an Intake diff. ([2]; amino acid 25 mM versus water) of 36.6 g, an Intake diff. ([3]; amino acid 25 mM versus water) of 22.5 g and an EC50 [1] of 31.7 mM.

Work on `N[C@@H](Cc1ccccc1)C(=O)O` [L-Phenylalanine] yielded an Intake diff. ([2]; amino acid 25 mM versus water) of 34.5 g and an Intake diff. ([3]; amino acid 25 mM versus water) of 19.4 g.

For `NCC(=O)O` [Glycine], the Intake diff. ([2]; amino acid 25 mM versus water) is listed as 20.8 g, the Intake diff. ([3]; amino acid 25 mM versus water) is listed as 9.1 g and the “Behavioral response of cats” value [5] is listed as “indifferent”.

In the case of `NCCS(=O)(=O)O` [Taurine], the “Activity as agonist or enhancer” value [1] is reported as “inactive”.

In the case of `N[C@@H](CCC(=O)O)C(=O)O` [L-Glutamic acid], the “Behavioral response of cats to the solutions” value [6] is given as “avoided”, the “Behavioral response of cats” value [5] is given as “avoided” and the “Activity as agonist or enhancer” value [1] is given as “did not respond”. The “Activation of cat Tas1r1-Tas1r3” value [7] was “inactive alone”.

For `N[C@@H](Cc1c[nH]cn1)C(=O)O` [L-Histidine], the “Behavioral response of cats” value [8] is given as “preferred”, the Intake diff. [2, 12] is given as 77.0 g and the Intake diff. [2, 10] is given as 91.5 g. The Intake diff. [2, 11] was 97.0 g, the Intake diff. ([2]; amino acid 25 mM versus water) was 43.7 g and the “Behavioral preference of cats” value ([6]; 100 mM, ref McGrane et al. 2013) was “significant behavioral preference”. The “Ligand binding to cat Tas1r1 VFT (conformational change)” value [4] was “active” and the EC50 [1] was 9.71 mM.

For `CSCC[C@H](N)C(=O)O` [L-Methionine], the Intake diff. ([2]; amino acid 25 mM versus water) was 35.8 g and the EC50 [1] was > 30 mM.

In the case of `N[C@@H](Cc1c[nH]c2ccccc12)C(=O)O` [L-Tryptophan], the “Behavioral response of cats” value [8] is listed as “avoided”, the “Solubility in assay buffer” value [9] is listed as “insoluble at 60 mM” and the Intake diff. [2, 12] is listed as 20.9 g. The Intake diff. [2, 10] was -11.6 g, the Intake diff. ([2]; amino acid 25 mM versus water) was 8.4 g and the Intake diff. ([3]; amino acid 25 mM versus water) was 10.0 g. It also gave an EC50 [1] of 6.32 mM.

In the case of `Nc1nc2c(ncn2[C@@H]2O[C@H](COP(=O)(O)O)[C@@H](O)[C@H]2O)c(=O)[nH]1` [GMP, Guanosine 5ʹ-monophosphate], the Intake diff. ([2]; nucleotide 5 mM versus water) is reported as 78.8 g, the EC50 [1] is reported as 0.32 mM and the “Concentration at which the assay started to respond” value ([1]; nucleotide alone) is reported as “around 0.1 mM”. For the same compound, the “Concentration at which the assay started to respond” value ([7]; rat Gα15 chimera) was “around 0.01 mM” and the “Activation of cat Tas1r1-Tas1r3” value [7] was “strongly activated”.

For `N=C(N)NCCC[C@H](N)C(=O)O` [L-Arginine], the “Ligand binding to cat Tas1r1 VFT (conformational change)” value [4] is given as “active”.
